Experimental data reported in patent EP3263567A1, “CARBOXAMIDE-SUBSTITUTED PYRAZOLES AND TRI(HETERO)ARYL-PYRAZOLES FOR USE IN METHODS OF TREATING AND / OR PREVENTING CARDIOVASCULAR DISEASES AND / OR COMORBIDITIES THEREOF” (AiCuris Anti-infective Cures GmbH, priority 2016, dated 2018).

Experiments:
human HCN4 currents = target: T1, human HCN4 currents (Homo sapiens, UniProt Q9Y3Q4); test: Whole-cell patch-clamp, HCN4 steady state currents in transiently transfected CHO cells; type: cell-based; conditions: CHO cells transiently expressing HCN4, steady state current at -120 mV, n=3; read-out: IC50 (inhibition of HCN4 currents)
T1 construct: CHO cells transiently expressing the HCN4 channel; expressed in transfected cells; host or cells: CHO (ATCC CCL-61), transiently transfected
T1 sequence (Q9Y3Q4 1-1203): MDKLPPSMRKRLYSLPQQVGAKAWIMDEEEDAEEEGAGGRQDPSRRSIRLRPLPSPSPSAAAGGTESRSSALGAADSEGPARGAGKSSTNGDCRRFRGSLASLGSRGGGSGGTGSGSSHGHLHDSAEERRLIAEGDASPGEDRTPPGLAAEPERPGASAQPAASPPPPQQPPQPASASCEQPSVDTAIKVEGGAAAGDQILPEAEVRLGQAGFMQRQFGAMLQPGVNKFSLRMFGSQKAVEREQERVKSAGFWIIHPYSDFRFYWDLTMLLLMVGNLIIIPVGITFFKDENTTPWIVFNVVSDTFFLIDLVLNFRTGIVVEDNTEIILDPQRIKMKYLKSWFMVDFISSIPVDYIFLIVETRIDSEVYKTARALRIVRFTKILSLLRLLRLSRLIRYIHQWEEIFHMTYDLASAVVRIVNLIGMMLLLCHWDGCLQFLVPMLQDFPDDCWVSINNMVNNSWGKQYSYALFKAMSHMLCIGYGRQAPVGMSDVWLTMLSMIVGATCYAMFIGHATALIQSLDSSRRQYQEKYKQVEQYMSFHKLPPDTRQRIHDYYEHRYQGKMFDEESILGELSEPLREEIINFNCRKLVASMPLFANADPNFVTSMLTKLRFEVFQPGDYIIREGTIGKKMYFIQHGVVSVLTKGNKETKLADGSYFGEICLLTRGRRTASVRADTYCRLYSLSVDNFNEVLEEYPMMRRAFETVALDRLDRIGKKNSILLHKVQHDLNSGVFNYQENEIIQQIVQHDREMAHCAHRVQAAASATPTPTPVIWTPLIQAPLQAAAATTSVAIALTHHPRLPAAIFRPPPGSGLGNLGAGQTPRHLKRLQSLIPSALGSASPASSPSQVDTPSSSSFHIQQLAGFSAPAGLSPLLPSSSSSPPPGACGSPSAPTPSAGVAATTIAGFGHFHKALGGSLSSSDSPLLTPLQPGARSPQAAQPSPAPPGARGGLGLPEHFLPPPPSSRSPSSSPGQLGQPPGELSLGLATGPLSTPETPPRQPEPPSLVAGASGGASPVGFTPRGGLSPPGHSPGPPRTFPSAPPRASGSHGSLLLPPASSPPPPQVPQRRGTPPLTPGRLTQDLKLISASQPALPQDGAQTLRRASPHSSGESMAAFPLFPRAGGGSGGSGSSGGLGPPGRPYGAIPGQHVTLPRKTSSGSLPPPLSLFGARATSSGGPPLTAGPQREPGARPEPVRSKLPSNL
Excerpt: The following six compounds in accordance with the invention: • Compound A: [drawing 81] i.e. 4-[5-[3-Chloro-5-(trifluoromethoxy) phenyl]-1-(pyridin-3-yl)-1H-pyrazol-3-yl]-5,6-dihydro-7H-pyrrolo[3,4-d]pyrimidin-7-one, • Compound B: [drawing 82] i.e. 4-[5-[3-Chloro-5-(trifluoromethoxy) phenyl]-1-(pyridin-3-yl)-1H-pyrazol-3-yl]-2,3-dihydro-1H-pyrrolo[3,4-c] pyridin-1-one, • Compound C: [drawing 83] i.e. 4-[5-[3-Chloro-5-(trifluoromethoxy) phenyl]-1-(pyridin-3-yl)-1H-pyrazol-3-yl]-5,6-dihydro-2-methyl-7H-pyrrolo[3, 4-d] pyrimidin-7-one, • Compound D: [drawing 84] i.e. 3-Amino-4-[5-[3-chloro-5-(trifluoromethoxy) phenyl]-1-(pyridin-3-yl)-1H-pyrazol-3-yl-carbonyl]-1,5-dihydro-2H-pyrrol-2-one, • Compound E: [drawing 85] i.e. 1-[[5-[3-Chloro-5-(trifluoromethoxy) phenyl]-1-(pyridin-3-yl)-1H-pyrazol-3-yl]carbonyl]-imidazolidin-4-one, • Compound F: [drawing 86] i.e. 4-[5-[3-Chloro-5-(trifluoromethoxy) phenyl]-1-(3-cyano-4-fluoro-phenyl)-1H-pyrazol-3-yl]-5,6-dihydro-7H-pyrrolo[3,4-d]pyrimidin-7-one, were tested on their effects on human HCN4 currents recorded from transiently transfected CHO cells, in direct comparison to the reference compounds described below: • Ivabradine: [drawing 87] i.e. ((S)-3-{3-[([3,4-Dimethoxy-bicyclo [4.2.0]octa-1,3,5-trien-7-yl]methyl)methylamino]propyl}-1,3,4,5-tetrahydro-7,8-dimethoxy-2H-3-benzazepin-2-on), • Compound X: [drawing 88] i.e. 1-[[1-(3-Chloro-4-fluorophenyl)-5-(3-chloro-5-fluorophenyl)-1 H-pyrazol-3-yl]carbonyl]-imidazolidin-4-one, • Compound Y: [drawing 89] i.e. N-(2-Amino-2-oxoethyl)-1-(3-chloro-4-fluorophenyl)-5-(3-chloro-5-fluorophenyl)-1H-pyrazole-3-carboxamide.
The pyrazole compounds X and Y as depicted above, and having structural similarities to the compounds of general formula (I) of the invention, were also tested to investigate whether the pure If current inhibitory effect of the compounds of the invention also extend to structurally closely related compounds.
Dependent on their solubility in the assay buffer, the compounds were tested first at one concentration of 10 µM (compound A, compound Y, compound X, compound B, compound E, compound F and ivabradine) or 1 µM for (compound C and D). If the current blocking of HCN4 at this concentration was higher than 50% the compounds were tested again at five concentrations of a half-logarithmic dilution series starting with either 10 µM or 1 µM as mentioned above (meaning 0.1 µM, 0.3 µM, 1 µM, 3 µM, and 10 µM or 0.01 µM, 0.03 µM 0.1 µM, 0.3 µM and 1 µM).
Test system: CHO cells transiently expressing the HCN4 channel; NCBI Reference Sequence: NP005468.1 (HCN4 channel); Source CHO: ATCC, CCL-61 LGC Standards GmbH, Wesel, Germany were used.
In 35 mm culture dishes CHO cells were seeded at a density allowing single cells to be recorded on the dish holder of the microscope and continuously perfused (at approximately 1 mL/min) with the bath solution described above. All solutions applied to cells including the pipette solution were maintained at room temperature (19 °C - 30 °C). After formation of a Gigaohm seal between the patch electrodes and individual cells (pipette resistance range: 2.0 MΩ - 7.0 MΩ; seal resistance range: > 1 GΩ) the cell membrane across the pipette tip was ruptured to assure electrical access to the cell interior (whole-cell patch-configuration). As soon as a stable seal was established, steady state currents were measured upon the hyperpolarization to -120 mV (2000 ms) from a holding potential of -40 mV. This voltage protocol (as shown in the scheme below) did run 5 times for control conditions and at least ten times for each test concentration. Pulse intervals were 20 s (0.05 Hz). If current amplitude was judged to be too low for measurement, another cell was recorded.
Once control recordings have been accomplished, cells were continuously perfused with bath solution containing the tested compounds as detailed above, 0.1 % DMSO or 100 µM ZD7288. […]

in vivo = conditions: both, Beagle, dog, po, 30 mg/kg
Method: A single oral dose of 30 or 100 mg/kg was applied to dogs. Pharmacokinetic parameters were assessed and compared.
Male and female Beagle dogs.
Plasma concentrations were obtained by LC-MS/MS measurements.

## O=C1NCc2c1ncnc2-c1cc(-c2cc(Cl)cc(OC(F)(F)F)c2)n(-c2cccnc2)n1 [Compound A, 4-[5-[3-Chloro-5-(trifluoromethoxy)phenyl]-1-(pyridin-3-yl)-1H-pyrazol-3-yl]-5,6-dihydro-7H-pyrrolo[3,4-d]pyrimidin-7-one]
Human HCN4 currents
  IC50: 30 to 580 nM
In vivo
  AUC(0-inf): 297 µg·h/mL
